This note sets out measurements from US20070010671A1, “Novel quinazoline derivatives and methods of treatment related to the use thereof” (priority 2003, published 2007).

In this assay the target is MCH receptor (Homo sapiens, UniProt Q99705). Nature of the assay: High throughput functional screening FLIPR/FDSS6000: inhibition of MCH-evoked intracellular Ca2+ changes. Conditions: class by percent of control at 10^-7 M or IC50. Type of assay: cell-based. Summed up:
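Cells expressing constitutively active MCH receptor, loaded with 4 μM Fluo4-AM for 1 h at 37 °C, were pretreated 3 min with compound, then challenged with MCH (50 nM for antagonist testing). MCH-evoked [Ca2+]i transients followed by FLIPR or FDSS (ex 488/em 530 nm) over 290 s.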

For `CN(C)c1nc(N[C@H]2CC[C@@H](CNC(=O)Nc3c(Cl)cccc3Cl)CC2)nc2ccccc12` [compound 483, N-(2,6-dichlorophenyl)-N′-[(cis-4-{[4-(dimethylamino)quinazolin-2-yl]amino}cyclohexyl)methyl]urea], the class is 1 (Class 1: The value of percent of control at 10^−7 M was less than 40% or the value of IC50 was less than 50 nM.).

For `CCc1cccc(CC)c1NC(=O)NC[C@H]1CC[C@@H](Nc2nc(N(C)C)c3ccccc3n2)CC1` [compound 484, N-(2,6-diethylphenyl)-N′-[(cis-4-{[4-(dimethylamino)quinazolin-2-yl]amino}cyclohexyl)methyl]urea], the class was 1 (Class 1: The value of percent of control at 10^−7 M was less than 40% or the value of IC50 was less than 50 nM.).

On to `CN(C)c1nc(N[C@H]2CC[C@@H](CNC(=O)Nc3ccccc3Cc3ccccc3)CC2)nc2ccccc12` [compound 485], for which the class was 3 (Class 3: The value of percent of control at 10^−7 M was more than 60% or the value of IC50 was more than 200 nM.).

For `Cc1ccc(Cl)c(NC(=O)NC[C@H]2CC[C@@H](Nc3nc(N(C)C)c4ccccc4n3)CC2)c1` [compound 486], the class is on record as 2 (Class 2: The value of percent of control at 10^−7 M was from 40% to 60% or the value of IC50 was from 50 nM to 200 nM.).

Consider `CN(C)c1nc(N[C@H]2CC[C@@H](CNC(=O)Nc3cc([N+](=O)[O-])ccc3Cl)CC2)nc2ccccc12` [compound 487], for which the class is given as 3 (Class 3: The value of percent of control at 10^−7 M was more than 60% or the value of IC50 was more than 200 nM.).

Consider `CN(C)c1nc(N[C@H]2CC[C@@H](CNC(=O)Nc3c(Cl)cccc3C(F)(F)F)CC2)nc2ccccc12` [compound 488], for which the class is 1 (Class 1: The value of percent of control at 10^−7 M was less than 40% or the value of IC50 was less than 50 nM.).

Regarding `Cc1cccc(Cl)c1NC(=O)NC[C@H]1CC[C@@H](Nc2nc(N(C)C)c3ccccc3n2)CC1` [compound 489], the class is 1 (Class 1: The value of percent of control at 10^−7 M was less than 40% or the value of IC50 was less than 50 nM.).

With `CN(C)c1nc(N[C@H]2CC[C@@H](CNC(=O)NCc3ccccc3Cl)CC2)nc2ccccc12` [compound 490, N-(2-chlorobenzyl)-N′-[(cis-4-{[4-(dimethylamino)quinazolin-2-yl]amino}cyclohexyl)methyl]urea], the class was 1 (Class 1: The value of percent of control at 10^−7 M was less than 40% or the value of IC50 was less than 50 nM.).

Regarding `CCOC(=O)c1ccccc1NC(=O)NC[C@H]1CC[C@@H](Nc2nc(N(C)C)c3ccccc3n2)CC1` [compound 491], the class is 3 (Class 3: The value of percent of control at 10^−7 M was more than 60% or the value of IC50 was more than 200 nM.).

With `CCc1cccc(C(C)C)c1NC(=O)NC[C@H]1CC[C@@H](Nc2nc(N(C)C)c3ccccc3n2)CC1` [compound 493, N-[(cis-4-{[4-(dimethylamino)quinazolin-2-yl]amino}cyclohexyl)methyl]-N′-(2-ethyl-6-isopropylphenyl)urea], the class is 1 (Class 1: The value of percent of control at 10^−7 M was less than 40% or the value of IC50 was less than 50 nM.).

Regarding `CCc1ccccc1NC(=O)NC[C@H]1CC[C@@H](Nc2nc(N(C)C)c3ccccc3n2)CC1` [compound 494, N-[(cis-4-{[4-(dimethylamino)quinazolin-2-yl]amino}cyclohexyl)methyl]-N′-(2-ethylphenyl)urea], the class is 1 (Class 1: The value of percent of control at 10^−7 M was less than 40% or the value of IC50 was less than 50 nM.).

For `CN(C)c1nc(N[C@H]2CC[C@@H](CNC(=O)Nc3cccc(C(F)(F)F)c3F)CC2)nc2ccccc12` [compound 495], the class is reported as 3 (Class 3: The value of percent of control at 10^−7 M was more than 60% or the value of IC50 was more than 200 nM.).

For `CN(C)c1nc(N[C@H]2CC[C@@H](CNC(=O)Nc3cc(C(F)(F)F)ccc3F)CC2)nc2ccccc12` [compound 496], the class is recorded as 3 (Class 3: The value of percent of control at 10^−7 M was more than 60% or the value of IC50 was more than 200 nM.).

Consider `Cc1ccc(F)c(NC(=O)NC[C@H]2CC[C@@H](Nc3nc(N(C)C)c4ccccc4n3)CC2)c1` [compound 497], for which the class is on record as 3 (Class 3: The value of percent of control at 10^−7 M was more than 60% or the value of IC50 was more than 200 nM.).

Turning to `CN(C)c1nc(N[C@H]2CC[C@@H](CNC(=O)Nc3cc([N+](=O)[O-])ccc3F)CC2)nc2ccccc12` [compound 498, N-[(cis-4-{[4-(dimethylamino)quinazolin-2-yl]amino}cyclohexyl)methyl]-N′-(2-fluoro-5-nitrophenyl)urea], the class is recorded as 2 (Class 2: The value of percent of control at 10^−7 M was from 40% to 60% or the value of IC50 was from 50 nM to 200 nM.).

`CN(C)c1nc(N[C@H]2CC[C@@H](CNC(=O)NCc3ccccc3F)CC2)nc2ccccc12` [compound 499, N-[(cis-4-{[4-(dimethylamino)quinazolin-2-yl]amino}cyclohexyl)methyl]-N′-(2-fluorobenzyl)urea]: the class was 2 (Class 2: The value of percent of control at 10^−7 M was from 40% to 60% or the value of IC50 was from 50 nM to 200 nM.).

Take `CN(C)c1nc(N[C@H]2CC[C@@H](CNC(=O)Nc3ccccc3I)CC2)nc2ccccc12` [compound 500, N-[(cis-4-{[4-(dimethylamino)quinazolin-2-yl]amino}cyclohexyl)methyl]-N′-(2-iodophenyl)urea]: the class is recorded as 1 (Class 1: The value of percent of control at 10^−7 M was less than 40% or the value of IC50 was less than 50 nM.).

On to `Cc1cccc(C(C)C)c1NC(=O)NC[C@H]1CC[C@@H](Nc2nc(N(C)C)c3ccccc3n2)CC1` [compound 501], for which the class is on record as 1 (Class 1: The value of percent of control at 10^−7 M was less than 40% or the value of IC50 was less than 50 nM.).

Consider `CC(C)c1ccccc1NC(=O)NC[C@H]1CC[C@@H](Nc2nc(N(C)C)c3ccccc3n2)CC1` [compound 502, N-[(cis-4-{[4-(dimethylamino)quinazolin-2-yl]amino}cyclohexyl)methyl]-N′-(2-isopropylphenyl)urea], for which the class is on record as 1 (Class 1: The value of percent of control at 10^−7 M was less than 40% or the value of IC50 was less than 50 nM.).

On to `COc1cc([N+](=O)[O-])ccc1NC(=O)NC[C@H]1CC[C@@H](Nc2nc(N(C)C)c3ccccc3n2)CC1` [compound 503], for which the class is reported as 3 (Class 3: The value of percent of control at 10^−7 M was more than 60% or the value of IC50 was more than 200 nM.).

Consider `COc1ccc(C)cc1NC(=O)NC[C@H]1CC[C@@H](Nc2nc(N(C)C)c3ccccc3n2)CC1` [compound 504], for which the class was 1 (Class 1: The value of percent of control at 10^−7 M was less than 40% or the value of IC50 was less than 50 nM.).

Take `COc1ccc([N+](=O)[O-])cc1NC(=O)NC[C@H]1CC[C@@H](Nc2nc(N(C)C)c3ccccc3n2)CC1` [compound 505, N-[(cis-4-{[4-(dimethylamino)quinazolin-2-yl]amino}cyclohexyl)methyl]-N′-(2-methoxy-5-nitrophenyl)urea]: the class is 2 (Class 2: The value of percent of control at 10^−7 M was from 40% to 60% or the value of IC50 was from 50 nM to 200 nM.).

Consider `Cc1c(NC(=O)NC[C@H]2CC[C@@H](Nc3nc(N(C)C)c4ccccc4n3)CC2)cccc1[N+](=O)[O-]` [compound 506, N-[(cis-4-{[4-(dimethylamino)quinazolin-2-yl]amino}cyclohexyl)methyl]-N′-(2-methyl-3-nitrophenyl)urea], for which the class is recorded as 1 (Class 1: The value of percent of control at 10^−7 M was less than 40% or the value of IC50 was less than 50 nM.).

Consider `Cc1cccc([N+](=O)[O-])c1NC(=O)NC[C@H]1CC[C@@H](Nc2nc(N(C)C)c3ccccc3n2)CC1` [compound 509, N-[(cis-4-{[4-(dimethylamino)quinazolin-2-yl]amino}cyclohexyl)methyl]-N′-(2-methyl-6-nitrophenyl)urea], for which the class is given as 1 (Class 1: The value of percent of control at 10^−7 M was less than 40% or the value of IC50 was less than 50 nM.).

Turning to `Cc1ccccc1CNC(=O)NC[C@H]1CC[C@@H](Nc2nc(N(C)C)c3ccccc3n2)CC1` [compound 510, N-[(cis-4-{[4-(dimethylamino)quinazolin-2-yl]amino}cyclohexyl)methyl]-N′-(2-methylbenzyl)urea], the class is 2 (Class 2: The value of percent of control at 10^−7 M was from 40% to 60% or the value of IC50 was from 50 nM to 200 nM.).

Regarding `CN(C)c1nc(N[C@H]2CC[C@@H](CNC(=O)Nc3ccc4ccccc4c3)CC2)nc2ccccc12` [compound 511], the class is listed as 3 (Class 3: The value of percent of control at 10^−7 M was more than 60% or the value of IC50 was more than 200 nM.).

Take `CN(C)c1nc(N[C@H]2CC[C@@H](CNC(=O)Nc3ccccc3[N+](=O)[O-])CC2)nc2ccccc12` [compound 512, N-[(cis-4-{[4-(dimethylamino)quinazolin-2-yl]amino}cyclohexyl)methyl]-N′-(2-nitrophenyl)urea]: the class is recorded as 2 (Class 2: The value of percent of control at 10^−7 M was from 40% to 60% or the value of IC50 was from 50 nM to 200 nM.).

On to `CCCc1ccccc1NC(=O)NC[C@H]1CC[C@@H](Nc2nc(N(C)C)c3ccccc3n2)CC1` [compound 513, N-[(cis-4-{[4-(dimethylamino)quinazolin-2-yl]amino}cyclohexyl)methyl]-N′-(2-propylphenyl)urea], for which the class was 1 (Class 1: The value of percent of control at 10^−7 M was less than 40% or the value of IC50 was less than 50 nM.).

For the compound `CN(C)c1nc(N[C@H]2CC[C@@H](CNC(=O)Nc3ccccc3Oc3ccccc3)CC2)nc2ccccc12` [compound 514, N-[(cis-4-{[4-(dimethylamino)quinazolin-2-yl]amino}cyclohexyl)methyl]-N′-(2-phenoxyphenyl)urea], the class was 2 (Class 2: The value of percent of control at 10^−7 M was from 40% to 60% or the value of IC50 was from 50 nM to 200 nM.).
